Experimental data reported in patent US11406622B2, “Glaucocalyxin a derivative, pharmaceutically acceptable salt thereof, or pharmaceutical composition thereof and uses thereof in preparation of drugs for treating psoriasis” (SUZHOU PHARMAVAN CO., LTD., priority 2017, dated 2022).
Values joined by “and” are separate entries in the source; they are usually repeats but may differ in a detail not shown here. Identical values can stand only once.

Tests used:
[1] = tested on: mouse spleen lymphocytes; assay: ConA-induced proliferation of mouse spleen lymphocytes, MTT (Example 8); format: cell-based; settings: 48 h, 5 μg/mL ConA
Protocol: In this example, the glaucocalyxin A derivatives and pharmaceutically acceptable salts thereof were detected for the effect thereof on ConA-induced proliferation of mouse spleen lymphocytes.
2×10^7/mL cell suspension was prepared and a 5 μg/μL ConA stock solution was added thereto at a final concentration of 5 μg/mL. The resulting mixture was inoculated into a 96-well culture plate at 0.1 mL per well. Then 0.1 mL of test compound at different concentrations was added to each well. Triplicate or quadruplicate wells were set up for each group, and a vehicle control group (without compound), a stimulant control group (with ConA, without compound, and without vehicle), a cell control group (without ConA, without compound, and without vehicle), and a blank medium control group (without cells, a well for null adjustment) were also set up, and cultured at 37° C., 5% CO2 for 48 h. MTT solution at 5 mg/mL was added at 20 μl per well, and cultured for an additional 4 hours. The culture plate was taken out and centrifuged at 1000 rpm for 10 min. The supernatant of each well was aspirated, and 100 μL of SDS cell lysis solution was added to each well, and cultured overnight. On the next day, the absorbance at 550 nm (OD550nm) was measured on an enzyme-linked immunoassay analyzer. The results were expressed as the mean OD550nm value of the triplicates or quadruplicates±standard deviation (x±sd). SPSS software version 17.0 was used for statistical analysis of the mean values, that is, the vehicle group was compared with the stimulant group, and the test group of each compound concentration was compared with the corresponding vehicle control group. The cell survival rate of each group was calculated according to the mean value for the compound treatment group and the mean value for the vehicle control group, that is, the cell survival rate (%)=the mean value for the compound treatment group/the mean value for the vehicle control group×100%. A linear regression equation was obtained by plotting the cell survival rate of each group against the concentration of the test compound, statistical test of the correlation coefficient was conducted, and then the IC50 value was determined.

[2] = tested on: BALB/c mice; assay: Acute toxicity in BALB/c mice, single tail-vein injection (Example 9); format: in vivo, mouse; settings: single intravenous injection
From the text: In this example, Compound 23 and Compound 24 were detected for their acute toxicities, and the detection method was as follows.
Experimental procedure: 40 BALB/c mice, half male and half female, were randomly divided into groups after weight measurement. The weight of an individual should be within the range of the average body weight±20%. Animals should be allowed to acclimatize to the environment for at least 5 days before the test, and healthy (if female, it must be un-pregnant) mice were selected as test animals. The main inspections during the acclimatization period included: whether it met the quality indicators required at the time of ordering; general state check; and whether the weight reached the weight range required by the test. Unqualified abnormal animals were not included in this test. A single tail-vein injection was administrated to the mice at a low, medium, or high dose, which was 5 mg/kg, 10 mg/kg, or 40 mg/kg respectively according to a blank preparation pre-test. An equal volume of vehicle was intravenously injected to establish a control group.
Mice were observed once respectively at 0 to 2 hours and 4 to 6 hours after each administration. If toxic symptoms occurred, the number of observations could be increased. (2) Gross anatomy observation: All the surviving mice in each group were dissected and observed on the 8th day of the experiment. The abnormal organs and tissues found in the observation of administration sites and in the gross anatomy observation that might be related to the test samples were photographed and recorded. (3) Disposal of dying animals: The state of the mouse and the observation time were recorded, and the body weight was measured. (4) Disposal of dead animals: The time of death or the time when the death was found was recorded, the body weight was measured, and then the dissection was quickly performed for gross observation to speculate the cause of death.

## Br.C=C1C(=O)C23C(O)CC4C(C)(C)c5nc(N(C)C)sc5CC4(C)C2CCC1C3O (centres unmarked) [Compound 23]
[1]; 0.78125 μg/mL
  OD550nm value (x ± sd): 1.14
  Survival rate (%): 98%
[1]; 1.5625 μg/mL
  OD550nm value (x ± sd): 1.18
  Survival rate (%): 101%
[1]; 3.125 μg/mL
  OD550nm value (x ± sd): 0.52
  Survival rate (%): 45%
[1]; 6.25 μg/mL
  OD550nm value (x ± sd): 0.29
  Survival rate (%): 25%
[1]; 12.5 μg/mL
  OD550nm value (x ± sd): 0.07
  Survival rate (%): 6%
[1]; 25 μg/mL
  OD550nm value (x ± sd): 0.02
  Survival rate (%): 2%
[1]; 50 μg/mL
  OD550nm value (x ± sd): 0.02
  Survival rate (%): 2%
[1]; 100 μg/mL
  OD550nm value (x ± sd): 0.02
  Survival rate (%): 1%
[1]; linear regression
  IC50: ~9.41 µM and 9.41 µM
  IC50 (μg/mL): IC50 = 4.00 μg/mL
[1]; range of concentrations tested
  effect on ConA-induced proliferation of mouse spleen lymphocytes (in words): significant effect
[2]
  comparative safety: safer than Compound 24
[2]; 5 mg/kg
  toxic side effects: No obvious toxic side effects
  weight loss and decreased diet: no significant weight loss and decreased diet
[2]; 10 mg/kg
  toxic side effects: No obvious toxic side effects
  weight loss and decreased diet: no significant weight loss and decreased diet
[2]; 40 mg/kg
  toxic side effects: No obvious toxic side effects
  weight loss and decreased diet: no significant weight loss and decreased diet
